Results as given in ChEMBL document CHEMBL1201862, “PubChem BioAssay data set” (2004).
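Each compound was tested at five concentrations against cells in 96-well plates for 48 hours. GI50 is the concentration that inhibits growth by half.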 Calls of active or inactive are those of the source. Rule as the data show it: active = GI50 up to about 1.1 µM and inactive = higher.

Tests used:
Experiment in all cases: NCI-60 cell line screen, 48 h
[1] = tested on: A498
[2] = tested on: CCRF-CEM
[3] = tested on: DU-145
[4] = tested on: EKVX
[5] = tested on: HL-60
[6] = tested on: LOX IMVI
[7] = tested on: MDA-MB-435
[8] = tested on: MDA-N
[9] = tested on: Malme-3M
[10] = tested on: NCI-H23
[11] = tested on: OVCAR-4
[12] = tested on: OVCAR-8
[13] = tested on: RXF 393
[14] = tested on: SF-295
[15] = tested on: SK-MEL-5
[16] = tested on: SK-OV-3
[17] = tested on: SNB-19
[18] = tested on: SR
[19] = tested on: U-251
[20] = tested on: UACC-257

| Structure (SMILES) | GI50 [1] | GI50 [2] | GI50 [3] | GI50 [4] | GI50 [5] | GI50 [6] | GI50 [7] | GI50 [8] | GI50 [9] | GI50 [10] | GI50 [11] | GI50 [12] | GI50 [13] | GI50 [14] | GI50 [15] | GI50 [16] | GI50 [17] | GI50 [18] | GI50 [19] | GI50 [20] |
| --- | --- | --- | --- | --- | --- | --- | --- | --- | --- | --- | --- | --- | --- | --- | --- | --- | --- | --- | --- | --- |
| C=CCC1(OC(C)=O)C2OC(=O)C1(O)OCC2O (stereo not given) | > 100 µM (inactive) | > 100 µM (inactive) | > 100 µM (inactive) | > 100 µM (inactive) | > 100 µM (inactive) | > 100 µM (inactive) | > 100 µM (inactive) | > 100 µM (inactive) | > 100 µM (inactive) | > 100 µM (inactive) | > 100 µM (inactive) | > 100 µM (inactive) | > 100 µM (inactive) | > 100 µM (inactive) | > 100 µM (inactive) | > 100 µM (inactive) | > 100 µM (inactive) | > 100 µM (inactive) | > 100 µM (inactive) | > 100 µM (inactive) |
| COc1cc(/C=C2\Sc3scc(-c4cccc([N+](=O)[O-])c4)[n+]3C2=O)cc(OC)c1OC | 47 µM (inactive) | 44.9 µM (inactive) | 15.2 µM (inactive) | 12.4 µM (inactive) | 36.7 µM (inactive) | 10.7 µM (inactive) | 12.6 µM (inactive) | 11.9 µM (inactive) | 13.8 µM (inactive) | 15.1 µM (inactive) | 15.3 µM (inactive) | 15.5 µM (inactive) | 12.5 µM (inactive) | 16.3 µM (inactive) | 6.1 µM (inactive) | 23.6 µM (inactive) | 16.7 µM (inactive) | 2.05 µM (inactive) | 11.6 µM (inactive) | 12.5 µM (inactive) |
| CCN(CC)CC(O)CNc1ccc(NCC(O)CCl)c2c1C(=O)c1ccccc1C2=O (stereo not given) | 13.5 µM (inactive) | 1.06 µM (active) | 13.4 µM (inactive) | 14.9 µM (inactive) | 3.54 µM (inactive) | 0.478 µM (active) | 4.45 µM (inactive) | 5.19 µM (inactive) | 13.4 µM (inactive) | 6.67 µM (inactive) | 6.52 µM (inactive) | 3.85 µM (inactive) | 12.6 µM (inactive) | 9.75 µM (inactive) | 7.48 µM (inactive) | 18.9 µM (inactive) | 12.2 µM (inactive) | 1.05 µM (active) | 10.8 µM (inactive) | 6.04 µM (inactive) |
| NNC1=NC(=O)NC(=O)C1 | > 100 µM (inactive) | 68.1 µM (inactive) | > 100 µM (inactive) | > 100 µM (inactive) | > 100 µM (inactive) | > 100 µM (inactive) | > 100 µM (inactive) | > 100 µM (inactive) | > 100 µM (inactive) | > 100 µM (inactive) | > 100 µM (inactive) | > 100 µM (inactive) | > 100 µM (inactive) | > 100 µM (inactive) | > 100 µM (inactive) | > 100 µM (inactive) | > 100 µM (inactive) | > 100 µM (inactive) | > 100 µM (inactive) | > 100 µM (inactive) |
| O=c1c(-c2nc3ccccc3c3ccccc3c2=O)nc2ccccc2c2ccccc12 | 35.7 µM (inactive) | 28.1 µM (inactive) | 80.9 µM (inactive) | 50.1 µM (inactive) | 20 µM (inactive) | 32.1 µM (inactive) | 29.2 µM (inactive) | 24.3 µM (inactive) | 76.6 µM (inactive) | 40 µM (inactive) | 37.5 µM (inactive) | 27.7 µM (inactive) | 26.8 µM (inactive) | 29.7 µM (inactive) | 24.8 µM (inactive) | > 100 µM (inactive) | 30.3 µM (inactive) | 21.9 µM (inactive) | 22.2 µM (inactive) | 33.8 µM (inactive) |
